Source: PubChem BioAssay (NCI)
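Assay format: 96-well plates, 48-hour exposure. At the TGI there is no net growth.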

How the values were obtained:
Assay in all cases: growth of human tumour cells (NCI), 48 h
[1] = test system: SK-OV-3 ovarian
[2] = test system: SNB-75 CNS
[3] = test system: DU-145 prostate
[4] = test system: OVCAR-8 ovarian
[5] = test system: UACC-257 melanoma
[6] = test system: CAKI-1 renal
[7] = test system: 786-0 renal
[8] = test system: NCI-H23 lung
[9] = test system: U251 CNS
[10] = test system: BT-549 breast
[11] = test system: T-47D breast
[12] = test system: COLO 205 colon
[13] = test system: SW-620 colon
[14] = test system: NCI-H460 lung
[15] = test system: SN12C renal
[16] = test system: EKVX NSCLC
[17] = test system: MDA-MB-231 breast
[18] = test system: HS 578T breast
[19] = test system: A549 NSCLC
[20] = test system: SF-268 CNS
[21] = test system: SK-MEL-28 melanoma
[22] = test system: OVCAR-5 ovarian
[23] = test system: K-562 leukemia
[24] = test system: IGROV1 ovarian
[25] = test system: UACC-62 melanoma
[26] = test system: OVCAR-4 ovarian
[27] = test system: HCT-116 colon
[28] = test system: SF-295 CNS
[29] = test system: RXF 393 renal
[30] = test system: UO-31 renal
[31] = test system: NCI-H522 lung
[32] = test system: MDA-N
[33] = test system: MCF7 breast
[34] = test system: SNB-19 CNS
[35] = test system: A498 renal
[36] = test system: HT29 colon
[37] = test system: NCI-H226 lung
[38] = test system: SF-539 CNS
[39] = test system: MDA-MB-435
[40] = test system: TK-10 renal
[41] = test system: HL-60(TB) leukemia
[42] = test system: MALME-3M melanoma
[43] = test system: ACHN renal
[44] = test system: OVCAR-3 ovarian
[45] = test system: CCRF-CEM leukemia
[46] = test system: HCC-2998 colon
[47] = test system: KM12 colon
[48] = test system: M14 melanoma
[49] = test system: SK-MEL-5 melanoma
[50] = test system: HOP-62 NSCLC
[51] = test system: PC-3 prostate
[52] = test system: HOP-92 NSCLC
[53] = test system: MOLT-4 leukemia
[54] = test system: SR leukemia
[55] = test system: HCT-15 colon
[56] = test system: LOX IMVI melanoma
[57] = test system: RPMI-8226 leukemia
[58] = test system: NCI/ADR-RES ovarian
[59] = test system: SK-MEL-2 melanoma

CC1(C)C2CCC1(C)C(NC(=O)CCN1CCOCC1)C2 (stereo not drawn)
TGI [1]: > 100 µM | TGI [2]: > 100 µM | TGI [3]: > 100 µM | TGI [4]: > 100 µM | TGI [5]: > 100 µM | TGI [6]: > 100 µM | TGI [7]: > 100 µM | TGI [8]: > 100 µM | TGI [9]: > 100 µM | TGI [10]: > 100 µM | TGI [11]: > 100 µM | TGI [12]: > 100 µM | TGI [13]: > 100 µM | TGI [14]: > 100 µM | TGI [15]: > 100 µM | TGI [16]: > 100 µM | TGI [17]: > 100 µM | TGI [18]: > 100 µM | TGI [19]: > 100 µM | TGI [20]: > 100 µM | TGI [21]: > 100 µM | TGI [22]: > 100 µM | TGI [23]: > 100 µM | TGI [24]: > 100 µM | TGI [25]: > 100 µM | TGI [26]: > 100 µM | TGI [27]: > 100 µM | TGI [28]: > 100 µM | TGI [29]: > 100 µM | TGI [30]: > 100 µM | TGI [31]: > 100 µM | TGI [32]: > 100 µM | TGI [33]: > 100 µM | TGI [34]: > 100 µM | TGI [35]: > 100 µM | TGI [36]: > 100 µM | TGI [37]: > 100 µM | TGI [38]: > 100 µM | TGI [39]: > 100 µM | TGI [40]: > 100 µM | TGI [41]: > 100 µM | TGI [42]: > 100 µM | TGI [43]: > 100 µM | TGI [44]: > 100 µM | TGI [45]: > 100 µM | TGI [46]: > 100 µM | TGI [47]: > 100 µM | TGI [48]: > 100 µM | TGI [49]: > 100 µM | TGI [50]: > 100 µM | TGI [51]: > 100 µM | TGI [52]: > 100 µM | TGI [53]: > 100 µM | TGI [54]: > 100 µM

O=C1CC(CC(O)C(O)CO)CC(=O)N1 (stereo not drawn)
TGI [3]: > 100 µM | TGI [4]: > 100 µM | TGI [5]: > 100 µM | TGI [6]: > 100 µM | TGI [7]: > 100 µM | TGI [8]: > 100 µM | TGI [9]: > 100 µM | TGI [10]: > 100 µM | TGI [11]: > 100 µM | TGI [13]: > 100 µM | TGI [14]: > 100 µM | TGI [55]: > 100 µM | TGI [15]: > 100 µM | TGI [16]: > 100 µM | TGI [17]: > 100 µM | TGI [18]: > 100 µM | TGI [56]: > 100 µM | TGI [19]: > 100 µM | TGI [20]: > 100 µM | TGI [21]: > 100 µM | TGI [23]: > 100 µM | TGI [57]: > 100 µM | TGI [24]: > 100 µM | TGI [27]: > 100 µM | TGI [28]: > 100 µM | TGI [30]: > 100 µM | TGI [31]: > 100 µM | TGI [32]: > 100 µM | TGI [33]: > 100 µM | TGI [34]: > 100 µM | TGI [35]: > 100 µM | TGI [36]: > 100 µM | TGI [37]: > 100 µM | TGI [38]: > 100 µM | TGI [39]: > 100 µM | TGI [40]: > 100 µM | TGI [41]: > 100 µM | TGI [42]: > 100 µM | TGI [58]: > 100 µM | TGI [43]: > 100 µM | TGI [44]: > 100 µM | TGI [45]: > 100 µM | TGI [46]: > 100 µM | TGI [47]: > 100 µM | TGI [48]: > 100 µM | TGI [49]: > 100 µM | TGI [50]: > 100 µM | TGI [51]: > 100 µM | TGI [52]: > 100 µM | TGI [53]: > 100 µM

COc1cc(C(CN)N(C)C)cc(OC)c1OC (stereo not drawn)
TGI [1]: > 100 µM | TGI [3]: > 100 µM | TGI [4]: > 100 µM | TGI [5]: > 100 µM | TGI [6]: > 100 µM | TGI [7]: > 100 µM | TGI [8]: > 100 µM | TGI [9]: > 100 µM | TGI [10]: > 100 µM | TGI [11]: > 100 µM | TGI [12]: > 100 µM | TGI [13]: > 100 µM | TGI [14]: > 100 µM | TGI [55]: > 100 µM | TGI [15]: > 100 µM | TGI [16]: > 100 µM | TGI [17]: > 100 µM | TGI [18]: > 100 µM | TGI [56]: > 100 µM | TGI [19]: > 100 µM | TGI [20]: > 100 µM | TGI [21]: > 100 µM | TGI [22]: > 100 µM | TGI [23]: > 100 µM | TGI [24]: > 100 µM | TGI [25]: > 100 µM | TGI [26]: > 100 µM | TGI [27]: > 100 µM | TGI [28]: > 100 µM | TGI [29]: > 100 µM | TGI [30]: > 100 µM | TGI [31]: > 100 µM | TGI [32]: > 100 µM | TGI [33]: > 100 µM | TGI [34]: > 100 µM | TGI [35]: > 100 µM | TGI [36]: > 100 µM | TGI [37]: 71.6 µM | TGI [38]: > 100 µM | TGI [39]: > 100 µM | TGI [40]: > 100 µM | TGI [41]: > 100 µM | TGI [42]: > 100 µM | TGI [58]: > 100 µM | TGI [43]: > 100 µM | TGI [44]: > 100 µM | TGI [45]: > 100 µM | TGI [46]: > 100 µM | TGI [47]: > 100 µM | TGI [48]: > 100 µM | TGI [49]: > 100 µM | TGI [50]: > 100 µM | TGI [51]: > 100 µM | TGI [52]: > 100 µM | TGI [53]: > 100 µM | TGI [54]: > 100 µM

O=C(CN1CCOCC1)NC1=Nc2ncccc2C(=O)NN1
TGI [1]: > 10 µM | TGI [2]: > 10 µM | TGI [3]: > 10 µM | TGI [4]: > 10 µM | TGI [5]: > 10 µM | TGI [7]: > 10 µM | TGI [8]: > 10 µM | TGI [9]: > 10 µM | TGI [10]: > 10 µM | TGI [11]: > 10 µM | TGI [13]: > 10 µM | TGI [14]: > 10 µM | TGI [55]: > 10 µM | TGI [15]: > 10 µM | TGI [16]: > 10 µM | TGI [17]: > 10 µM | TGI [18]: > 10 µM | TGI [56]: > 10 µM | TGI [59]: > 10 µM | TGI [19]: > 10 µM | TGI [20]: > 10 µM | TGI [21]: > 10 µM | TGI [22]: > 10 µM | TGI [23]: > 10 µM | TGI [57]: > 10 µM | TGI [24]: > 10 µM | TGI [25]: > 10 µM | TGI [27]: > 10 µM | TGI [28]: > 10 µM | TGI [29]: > 10 µM | TGI [30]: > 10 µM | TGI [32]: > 10 µM | TGI [33]: > 10 µM | TGI [34]: > 10 µM | TGI [35]: > 10 µM | TGI [36]: > 10 µM | TGI [37]: > 10 µM | TGI [38]: > 10 µM | TGI [39]: > 10 µM | TGI [40]: > 10 µM | TGI [41]: > 10 µM | TGI [42]: > 10 µM | TGI [43]: > 10 µM | TGI [44]: > 10 µM | TGI [45]: > 10 µM | TGI [47]: > 10 µM | TGI [48]: > 10 µM | TGI [49]: > 10 µM | TGI [50]: > 10 µM | TGI [51]: > 10 µM | TGI [52]: > 10 µM | TGI [53]: > 10 µM | TGI [54]: > 10 µM
